In the experiment the target is T1, recombinant human KLK5 (Homo sapiens, UniProt Q9Y337).
T1 construct: purchased Novoprotein or R&D Systems C415 or 1108-SE
T1 sequence (Q9Y337 23-293): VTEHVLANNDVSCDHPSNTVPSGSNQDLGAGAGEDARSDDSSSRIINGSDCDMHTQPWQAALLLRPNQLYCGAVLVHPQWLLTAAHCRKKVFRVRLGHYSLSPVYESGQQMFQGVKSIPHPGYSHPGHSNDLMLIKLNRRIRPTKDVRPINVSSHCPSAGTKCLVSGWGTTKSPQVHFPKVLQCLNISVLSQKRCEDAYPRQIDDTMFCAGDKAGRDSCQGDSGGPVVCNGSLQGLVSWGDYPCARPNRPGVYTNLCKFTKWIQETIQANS
The experiment in a line: Kallikrein (KLK) 5 enzymatic assay (Boc-VPR-AMC fluorogenic substrate). In kind it is biochemical. The settings on record: recombinant human KLK5 0.1 μg/well, Boc-VPR-AMC 100 μM, pH 7.5, room temperature, 1% DMSO; tested a minimum of three times. A digest of the protocol:
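Recombinant human KLK5 (0.1 μg/well) was preincubated with compound at room temperature in 0.1 M NaH2PO4, pH 7.5, 1% DMSO, then started with 100 μM Boc-VPR-AMC. The rate was followed at 380/460 nm, and IC50 came from percent inhibition relative to enzyme alone, with at least three runs.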

pIC50: −log10 of the molar value. Some results are limits rather than exact numbers.

On to `Nc1nccc2c(-c3ccc4c(c3)c(COc3c(CC(=O)O)cccc3C(=O)O)nn4C3CCC3)cccc12` [Compound 177a, 2-((5-(1-aminoisoquinolin-5-yl)-1-cyclobutyl-1H-indazol-3-yl)methoxy)-3-(carboxymethyl)benzoic acid], for which the pIC50 was 5.00 to 6.00.
In the case of `CCn1nc(COc2ccccc2CC(=O)O)c2cc(-c3cccc4c(N)nccc34)ccc21` [Compound 178f, 2-(2-((5-(1-aminoisoquinolin-5-yl)-1-ethyl-1H-indazol-3-yl)methoxy)phenyl)acetic acid] it was more than 6.00; in that of `CCn1nc(COc2ccccc2CC(=O)O)c2cc(-c3ccc4ccnc(N)c4c3)ccc21` [Compound 179b, 2-(2-((5-(1-aminoisoquinolin-7-yl)-1-ethyl-1H-indazol-3-yl)methoxy)phenyl)acetic acid], more than 6.00.
In the case of `CCc1cccc(OCc2nn(C3CCC3)c3ccc(-c4ccc5ccnc(N)c5c4)cc23)c1CC(=O)O` [Compound 180g, 2-(2-((5-(1-aminoisoquinolin-7-yl)-1-cyclobutyl-1H-indazol-3-yl)methoxy)-6-ethylphenyl)acetic acid] it was 5.00 to 6.00; in that of `CCc1cccc(OCc2nn(C3CCC3)c3ccc(-c4cccc5c(N)nccc45)cc23)c1CC(=O)O` [Compound 181b, 2-(2-((5-(1-aminoisoquinolin-5-yl)-1-cyclobutyl-1H-indazol-3-yl)methoxy)-6-ethylphenyl)acetic acid], more than 6.00; in that of `CCOC(=O)Cc1ccccc1OCc1nn(CCF)c2ccc(Br)cc12` [Compound 182c, ethyl 2-(2-((5-bromo-1-(2-fluoroethyl)-1H-indazol-3-yl)methoxy)phenyl)acetate], more than 6.00.
`Nc1nccc2c(-c3ccc4c(c3)c(COc3ccccc3CC(=O)O)nn4CCF)cccc12` [Compound 183b, 2-(2-((5-(1-aminoisoquinolin-5-yl)-1-(2-fluoroethyl)-1H-indazol-3-yl)methoxy)phenyl)acetic acid]: the pIC50 was more than 6.00.
In the case of `CCCCn1nc(COc2ccccc2CC(=O)O)c2cc(-c3ccc4ccnc(N)c4c3)ccc21` [Compound 184e, 2-(2-((5-(1-aminoisoquinolin-7-yl)-1-butyl-1H-indazol-3-yl)methoxy)phenyl)acetic acid] it was more than 6.00; in that of `CCCCn1nc(COc2ccccc2CC(=O)O)c2cc(-c3cccc4c(N)nccc34)ccc21` [Compound 185b, 2-(2-((5-(1-aminoisoquinolin-5-yl)-1-butyl-1H-indazol-3-yl)methoxy)phenyl)acetic acid], more than 6.00.
On to `CCCn1nc(COc2ccccc2CC(=O)O)c2cc(-c3ccc4ccnc(N)c4c3)ccc21` [Compound 186e, 2-(2-((5-(1-aminoisoquinolin-7-yl)-1-propyl-1H-indazol-3-yl)methoxy)phenyl)acetic acid], for which the pIC50 is more than 6.00.
The same measure for `CCCn1nc(COc2ccccc2CC(=O)O)c2cc(-c3cccc4c(N)nccc34)ccc21` [Compound 187b, 2-(2-((5-(1-aminoisoquinolin-5-yl)-1-propyl-1H-indazol-3-yl)methoxy)phenyl)acetic acid]: more than 6.00.
In the case of `CC(C)Cn1nc(COc2ccccc2CC(=O)O)c2cc(-c3ccc4ccnc(N)c4c3)ccc21` [Compound 188e, 2-(2-((5-(1-aminoisoquinolin-7-yl)-1-isobutyl-1H-indazol-3-yl)methoxy)phenyl)acetic acid] it was more than 6.00.
As to `CC(C)Cn1nc(COc2ccccc2CC(=O)O)c2cc(-c3cccc4c(N)nccc34)ccc21` [Compound 189b, 2-(2-((5-(1-aminoisoquinolin-5-yl)-1-isobutyl-1H-indazol-3-yl)methoxy)phenyl)acetic acid], the pIC50 was more than 6.00.
In the case of `CC[C@@H](C)n1nc(COc2ccccc2CC(=O)O)c2cc(-c3ccc4ccnc(N)c4c3)ccc21` [Compound 190e, (R)-2-(2-((5-(1-aminoisoquinolin-7-yl)-1-(sec-butyl)-1H-indazol-3-yl)methoxy)phenyl)acetic acid], the pIC50 was more than 6.00.
In the case of `CC[C@@H](C)n1nc(COc2ccccc2CC(=O)O)c2cc(-c3cccc4c(N)nccc34)ccc21` [Compound 191b, (R)-2-(2-((5-(1-aminoisoquinolin-5-yl)-1-(sec-butyl)-1H-indazol-3-yl)methoxy)phenyl)acetic acid] it was more than 6.00; in that of `CC[C@H](C)n1nc(COc2ccccc2CC(=O)O)c2cc(-c3ccc4ccnc(N)c4c3)ccc21` [Compound 192e, (S)-2-(2-((5-(1-aminoisoquinolin-7-yl)-1-(sec-butyl)-1H-indazol-3-yl)methoxy)phenyl)acetic acid], more than 6.00.
The same measure for `CC[C@H](C)n1nc(COc2ccccc2CC(=O)O)c2cc(-c3cccc4c(N)nccc34)ccc21` [Compound 193b, (S)-2-(2-((5-(1-aminoisoquinolin-5-yl)-1-(sec-butyl)-1H-indazol-3-yl)methoxy)phenyl)acetic acid]: more than 6.00; for `CC(C)(C)OC(=O)N1CC(Cn2nc(COc3ccccc3CC(=O)O)c3cc(-c4ccc5ccnc(N)c5c4)ccc32)C1` [Compound 194g, 2-(2-((5-(1-aminoisoquinolin-7-yl)-1-((1-(tert-butoxycarbonyl)azetidin-3-yl)methyl)-1H-indazol-3-yl)methoxy)phenyl)acetic acid]: more than 6.00.
In the case of `CC(C)(C)OC(=O)N1CC(Cn2nc(COc3ccccc3CC(=O)O)c3cc(-c4cccc5c(N)nccc45)ccc32)C1` [Compound 195b, 2-(2-((5-(1-aminoisoquinolin-5-yl)-1-((1-(tert-butoxycarbonyl)azetidin-3-yl)methyl)-1H-indazol-3-yl)methoxy)phenyl)acetic acid] it was more than 6.00; in that of `Cn1nc(COc2ccccc2CC(=O)O)c2cc(-c3ccc4ccnc(N)c4c3)cnc21` [Compound 196e, 2-(2-((5-(1-aminoisoquinolin-7-yl)-1-methyl-1H-pyrazolo[3,4-b]pyridin-3-yl)methoxy)phenyl)acetic acid], more than 6.00; in that of `Nc1nccc2ccc(-c3cnc4c(c3)c(COc3ccccc3CC(=O)O)nn4C3CCC3)cc12` [Compound 197j, 2-(2-((5-(1-aminoisoquinolin-7-yl)-1-cyclobutyl-1H-pyrazolo[3,4-b]pyridin-3-yl)methoxy)phenyl)acetic acid], more than 6.00.
Consider `Nc1nccc2c(-c3cnc4c(c3)c(COc3ccccc3CC(=O)O)nn4C3CCC3)cccc12` [Compound 198b, 2-(2-((5-(1-aminoisoquinolin-5-yl)-1-cyclobutyl-1H-pyrazolo[3,4-b]pyridin-3-yl)methoxy)phenyl)acetic acid], for which the pIC50 was more than 6.00.
The same measure for `Nc1nccc2ccc(-c3ccc4c(c3)C(Oc3ccccc3CC(=O)O)CC4)cc12` (centres unmarked) [Compound 199d, 2-(2-((6-(1-aminoisoquinolin-7-yl)-2,3-dihydro-1H-inden-1-yl)oxy)phenyl)acetic acid]: more than 6.00; for `Nc1nccc2c(-c3ccc4c(c3)C(Oc3ccccc3CC(=O)O)CC4)cccc12` (centres unmarked) [Compound 200b, 2-(2-((6-(1-aminoisoquinolin-5-yl)-2,3-dihydro-1H-inden-1-yl)oxy)phenyl)acetic acid]: more than 6.00.
The same measure for `Nc1nccc2ccc(-c3ccc4c(c3)c(COc3ccccc3CC(=O)O)nn4-c3ccccc3)cc12` [Compound 201c, 2-(2-((5-(1-aminoisoquinolin-7-yl)-1-phenyl-1H-indazol-3-yl)methoxy)phenyl)acetic acid]: more than 6.00; for `Nc1nccc2c(-c3ccc4c(c3)c(COc3ccccc3CC(=O)O)nn4-c3ccccc3)cccc12` [Compound 202b, 2-(2-((5-(1-aminoisoquinolin-5-yl)-1-phenyl-1H-indazol-3-yl)methoxy)phenyl)acetic acid]: more than 6.00; for `N=C(N)c1cccc(-c2ccc3c(c2)c(COc2ccccc2CC(=O)O)nn3-c2ccccc2)c1` [Compound 203c, 2-(2-((5-(3-carbamimidoylphenyl)-1-phenyl-1H-indazol-3-yl)methoxy)phenyl)acetic acid]: more than 6.00.
In the case of `Nc1nccc2ccc(-c3ccc4c(c3)C(Oc3ccccc3CC(=O)O)CCC4)cc12` (centres unmarked) [Compound 204d, 2-(2-((7-(1-aminoisoquinolin-7-yl)-1,2,3,4-tetrahydronaphthalen-1-yl)oxy)phenyl)acetic acid] it was 5.00 to 6.00; in that of `Cc1cc(-c2ccc3ccnc(N)c3c2)cc2c1CCC2Oc1ccccc1CC(=O)O` (centres unmarked) [Compound 205e, 2-(2-((6-(1-aminoisoquinolin-7-yl)-4-methyl-2,3-dihydro-1H-inden-1-yl)oxy)phenyl)acetic acid], 5.00 to 6.00; in that of `Cc1cc(-c2cccc3c(N)nccc23)cc2c1CCC2Oc1ccccc1CC(=O)O` (centres unmarked) [Compound 206b, 2-(2-((6-(1-aminoisoquinolin-5-yl)-4-methyl-2,3-dihydro-1H-inden-1-yl)oxy)phenyl)acetic acid], more than 6.00.
On to `Nc1nccc2ccc(-c3cc(F)c4c(c3)C(Oc3ccccc3CC(=O)O)CC4)cc12` (centres unmarked) [Compound 207e, 2-(2-((6-(1-aminoisoquinolin-7-yl)-4-fluoro-2,3-dihydro-1H-inden-1-yl)oxy)phenyl)acetic acid], for which the pIC50 is more than 6.00.
The same measure for `Nc1nccc2c(-c3cc(F)c4c(c3)C(Oc3ccccc3CC(=O)O)CC4)cccc12` (centres unmarked) [Compound 208b, 2-(2-((6-(1-aminoisoquinolin-5-yl)-4-fluoro-2,3-dihydro-1H-inden-1-yl)oxy)phenyl)acetic acid]: more than 6.00.
